Results as given in patent US20130096104A1, “IMIDAZOPYRIDINE COMPOUNDS, COMPOSITIONS AND METHODS OF USE” (GENENTECH, INC., priority 2010, published 2013).

Target: T1, TYK2 kinase domain (Homo sapiens, UniProt P29597)
T1 construct: The activity of the isolated JAK1, JAK2 or TYK2 kinase domain was measured
T1 sequence (P29597 897-1176 limits assumed): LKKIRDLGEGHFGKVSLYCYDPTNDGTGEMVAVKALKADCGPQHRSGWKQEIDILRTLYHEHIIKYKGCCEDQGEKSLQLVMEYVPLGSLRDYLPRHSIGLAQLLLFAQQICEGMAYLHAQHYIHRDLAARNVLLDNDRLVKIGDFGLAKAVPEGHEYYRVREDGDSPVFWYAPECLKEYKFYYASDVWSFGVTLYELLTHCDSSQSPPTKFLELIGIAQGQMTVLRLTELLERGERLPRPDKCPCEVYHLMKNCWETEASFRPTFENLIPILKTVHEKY
Assay: TYK2 inhibition assay (Example A, Caliper LabChip peptide phosphorylation)
Assay type: biochemical
Details: isolated kinase domain, 1 nM TYK2, 25 uM ATP, Morrison tight binding model
Description: The activity of the isolated JAK1, JAK2 or TYK2 kinase domain was measured by monitoring phosphorylation of a peptide derived from JAK3 ([…] fluorescently labeled on the N-terminus with 5-carboxyfluorescein using the Caliper LabChip technology (Caliper Life Sciences, Hopkinton, Mass.). […] Reactions were incubated at 22° C. in 384-well polypropylene microtiter plates for 30 minutes and then stopped by addition of 25 uL of an EDTA containing solution (100 mM Hepes pH 7.2, 0.015% Brij-35, 150 mM EDTA), resulting in a final EDTA concentration of 50 mM. After termination of the kinase reaction, the proportion of phosphorylated product was determined as a fraction of total peptide substrate using the Caliper LabChip 3000 according to the manufacturer's specifications. Ki values were then determined using the Morrison tight binding model. Morrison, J. F., Biochim. Biophys. Acta. 185:269-296 (1969); William, J. W. and Morrison, J. F., Meth. Enzymol., 63:437-467 (1979).

SMILES | Ki
CNC(=O)Nc1ncnc2nc(-c3c(Cl)cccc3Cl)[nH]c12 [Example 171, 1-(8-(2,6-dichlorophenyl)-7H-purin-6-yl)-3-methylurea] | 27.2 nM
COC(=O)Nc1ncnc2nc(-c3c(F)cccc3Cl)[nH]c12 [Example 208, methyl 8-(2-chloro-6-fluorophenyl)-7H-purin-6-ylcarbamate] | 56 nM
CNC(=O)Nc1nccc2nc(-c3c(Cl)cccc3Cl)[nH]c12 [Example 11, 1-(2-(2,6-dichlorophenyl)-3H-imidazo[4,5-e]pyridin-4-yl)-3-methylurea] | 4.9 nM
Cc1nc(Nc2ncnc3nc(-c4c(Cl)cccc4Cl)[nH]c23)cc(N2CCN(CCO)CC2)n1 [Example 167, 2-(4-{6-[8-(2,6-Dichloro-phenyl)-7H-purin-6-ylamino]-2-methyl-pyrimidin-4-yl}-piperazin-1-yl)-ethanol] | 7.2 nM
Fc1cccc(Cl)c1-c1nc2ccnc(Nc3cnccn3)c2[nH]1 [Example 6, 2-(2-chloro-6-fluorophenyl)-N-(pyrazin-2-yl)-3H-imidazo[4,5-e]-pyridin-4-amine] | 3.1 nM
Cn1c(-c2c(Cl)cccc2Cl)nc2c(Nc3ccncc3)ncnc21 [Example 215, 8-(2,6-dichlorophenyl)-9-methyl-N-(pyridin-4-yl)-9H-purin-6-amine] | 56.5 nM
O=C(Nc1ncnc2nc(-c3c(Cl)cccc3Cl)[nH]c12)C1CC1 [Example 15, N-(8-(2,6-dichlorophenyl)-7H-purin-6-yl)cyclopropanecarboxamide] | 8.1 nM
Clc1cccc(Cl)c1-c1nc2ccnc(Nc3cn[nH]c3)c2[nH]1 [Example 3, 2-(2,6-dichlorophenyl)-N-(1H-pyrazol-4-yl)-3H-imidazo[4,5-e]-pyridin-4-amine] | 14.5 nM
Clc1cccc(Cl)c1-c1nc2c(Nc3ccncn3)ncnc2[nH]1 [Example 14, 8-(2,6-dichlorophenyl)-N-(pyrimidin-4-yl)-9H-purin-6-amine] | 2.8 nM
Cn1c(-c2c(Cl)cccc2Cl)nc2ccnc(NC(=O)C3CC3)c21 [Example 13, N-(2-(2,6-dichlorophenyl)-3-methyl-3H-imidazo[4,5-c]pyridine-4-yl)cyclopropanecarboxamide] | 19.5 nM
Clc1cccc(Cl)c1-c1nc2c(Nc3ccccn3)nccc2[nH]1 [Example 1, 2-(2,6-dichlorophenyl)-N-(pyridin-2-yl)-1H-imidazo[4,5-e]pyridin-4-amine] | 1.7 nM
Cc1ccc(Nc2ncnc3nc(-c4c(Cl)cccc4Cl)[nH]c23)nc1 [Example 179, 8-(2,6-dichlorophenyl)-N-(5-methylpyridin-2-yl)-7H-purin-6-amine] | 1.5 nM
Cc1cc(Nc2ncc(F)c3[nH]c(-c4c(Cl)cccc4Cl)nc23)nc(C)n1 [Example 16, 2-(2,6-dichlorophenyl)-N-(2,6-dimethylpyrimidin-4-yl)-7-fluoro-1H-imidazo[4,5-c]pyridin-4-amine] | 2.3 nM
N#Cc1cc(Cl)c(-c2nc3ncnc(Nc4ccc(N5CCOCC5)cn4)c3[nH]2)c(Cl)c1 [Example 197, 3,5-dichloro-4-(6-(5-morpholinopyridin-2-ylamino)-7H-purin-8-yl)benzonitrile] | 1.4 nM
O=C(Nc1nccc2nc(-c3c(Cl)cccc3Cl)[nH]c12)c1cncs1 [Example 7, N-(2-(2,6-dichlorophenyl)-3H-imidazo[4,5-c]pyridin-4-yl) thiazole-5-carboxamide] | 7.8 nM
O=C(Nc1ncc(Cl)c2[nH]c(-c3c(Cl)cccc3Cl)nc12)C1CC1 [Example 447, Cyclopropanecarboxylic acid [7-chloro-2-(2,6-dichloro-phenyl)-1H-imidazo[4,5-c]pyridin-4-yl]-amide] | 0.8 nM
Cn1c(-c2c(Cl)cccc2Cl)nc2c(NC(=O)C3CC3)nccc21 [Example 12, N-(2-(2,6-dichlorophenyl)-1-methyl-1H-imidazo[4,5-c]pyridine-4-yl)cyclopropanecarboxamide] | 13.3 nM
N#Cc1cc(Cl)c(-c2nc3ccnc(NC(=O)C4CC4)c3[nH]2)c(Cl)c1 [Example 10, N-(2-(2,6-dichloro-4-cyanophenyl)-3H-imidazo[4,5-c]pyridin-4-yl)cyclopropanecarboxamide] | 2.5 nM
Clc1cccc(Cl)c1-c1nc2ccnc(Nc3cc(N4CCOCC4)ncn3)c2[nH]1 [Example 5, 2-(2,6-dichlorophenyl)-N-(6-morpholinopyrimidin-4-yl)-3H-imidazo[4,5-e]pyridin-4-amine] | 0.6 nM
O=C(Nc1ncnc2c1nc(-c1c(Cl)cccc1Cl)n2CCO)C1CC1 [Example 439, Cyclopropanecarboxylic acid [8-(2,6-dichloro-phenyl)-9-(2-hydroxy-ethyl)-9H-purin-6-yl]-amide] | 835 nM
O=C(Nc1ncnc2nc(-c3c(F)cccc3Cl)[nH]c12)C1CC1 [Example 210, N-(8-(2-chloro-6-fluorophenyl)-7H-purin-6-yl)cyclopropanecarboxamide] | 27.8 nM
